# Laboratory results taken from US20080058405A1, “REPLICATING MELATONIN SIGNALING IN A FETUS, NEWBORN OR SUCKLING INFANT” (OREGON HEALTH & SCIENCE UNIVERSITY, priority 2006, published 2008).
# “Also recorded” adds a separate entry of the source.
# Assays:
# [1] = adults, orally-administered melatonin; cited from earlier work
# [2] = system: newborn infant; assay: Manipulation of the sleep/wake circadian rhythm of a newborn infant by exogenous melatonin given orally to the nursing mother (suckled or pumped breast milk); assay type: in vivo, human
# Method: The following log includes nighttime sleep data of the infant taking nothing else by mouth except thrush medication during about weeks 2-4. […] All melatonin used in this Example was an immediate-release formulation taken by the […] orally.
# • Sunday (10 days post-partum, first day of exogenous melatonin administration in breast milk): • At 20:50 […] took 3 mg melatonin orally. At 21:20 breast-fed baby. […] Monday: • At 19:45, […] took 1.05 mg. […] Tuesday: • At 20:30, […] took 0.9 mg and fed at 9. […] Wednesday: • At 20:45, […] took 3 mg. […] Thursday. • […] took 3 mg at 20:45. […] Week 2 Sunday. • […] took 3 mg at 20:30 but ate immediately after. […] Tuesday: • […] took 3 mg at 20:30. […] Wednesday • […] took 3 mg at 20:30. […] Friday • […] took 3 mg at 20:30. […] Saturday: • […] took 3 mg at 20:30. […] Week 3 Sunday: • […] took 3 mg at 15:00. […] Monday • […] took 3 mg at 17:20. […] Tuesday: • […] took 3 mg at 17:00. […] Wednesday: • […] took 1.8 mg at 17:45. […] Thursday: • […] took 3 mg at 17:00. […] Friday: • […] took 3 mg at 20:30. […] Saturday: • […] took 2 mg at 19:15.
# [3] = same maternal dosing, infant fed by breast milk
smiles,measurement,setting,value
"COc1ccc2[nH]cc(CCNC(C)=O)c2c1 [melatonin, N-acetyl-5-methoxytryptamine]",melatonin bioavailability,[1],1-15%
same,infant sleep period after first feeding with exogenous melatonin in breast milk,"[2]; 10 days post-partum, mother took 3 mg orally at 20:50, baby breast-fed at 21:20",slept between 22:00 and 04:00
same,improvement of colic versus its worst,"[2]; Week 5 Monday, parent took 3 mg at 17:00",about 40%
same,sleep of mother and newborn,"[2]; parent took 1.8-12 mg (usually 3 mg) in the evening, sometimes 1-2 mg in the middle of the night or 0.5 mg towards end of night, immediate-release, oral, infant fed by suckling or pumped breast milk",better sleep for both mother and newborn
same,actual breast-feeding time during the night,[2]; [3],no reduction
same,development of the infant's independent ability to synchronize to the ambient light/dark cycle,[2]; [3],appeared to accelerate development; also recorded: caused early synchronization
same,evening/nighttime colic in the infant,[2]; [3],less evening/nighttime colic
same,weight gain in the baby,[2]; [3],"steady weight gain; also recorded: excellent on melatonin, better than before melatonin"
